Test results taken from patent US8420216B2, “Thermosetting resin composition” (Showa Denko K.K., priority 2007, dated 2013).
“And” between values parts separate entries of the source, which are not always exact repeats. Identical values can stand only once. Like-named read-outs stand apart in the source and are kept apart here.

Experiment: pKa of curing accelerator (dissociation constant of aqueous solution at 25° C.)
Format: physicochemical
Method: The “pKa value” referred to in the invention is a numerical value represented by the following formula when the dissociation constant of an aqueous solution at 25° C. is denoted by “Ka”. The dissociation constant Ka of the aqueous solution is determined by, for example, measuring a hydrogen ion concentration of the aqueous solution by a pH meter and calculating concentrations of a dissociated component and an undissociated component after dissolution by the use of the resulting hydrogen ion concentration and weighed values of the solvate and water before dissolution. pKa=−log10 Ka

[1] = aqueous solution at 25° C., values in text
[2] = aqueous solution, of the curing accelerator, Table 1, read-out: pKa

| pKa [1] | pKa (of the curing accelerator, Table 1) | pKa (aqueous solution, aqueous solution at 25° C., values in text, read-out: pKa) | Structure (SMILES) | pKa [2] | pKa (aqueous solution at 25° C., values in text, read-out: pKa) |
| --- | --- | --- | --- | --- | --- |
| 12.5 | 12.7 and 12.5 |  | C1CCC2=NCCCN2CC1 [DBU, 1,8-diazabicyclo[5.4.0]undecene-7] |  |  |
| 7.9 |  | 7.88 | Cc1ncc[nH]1 [2-methylimidazole] | 7.9 |  |
|  |  |  | Nc1nc(N)nc(N)n1 [melamine] | 5 | 5 |
